Results taken from US20090176817A1, “Method of Treatment of Diarrhea-Predominant Irritable Bowel Syndrome in a Subject” (priority 2005, published 2009).
Read-outs that look alike come from different tables or passages of the source.

What was measured:
Format in all cases: in vivo, human
[1] = tested on: diarrhea-predominant IBS subjects; settings: for Percentage of Subjects Who Worsened from Baseline: Daily Abdominal Pain / Percentage of Subjects Who Worsened from Baseline: Daily Urgency: S241.3.009, observed value
Excerpt: The primary efficacy parameter was the overall response rate for IBS symptoms, based on the weekly question concerning adequate relief of IBS symptoms (abdominal pain/discomfort, abnormal bowel habits) over the 26 weeks period. A responder was a subject who responded “yes” at least 50% of the time during his/her treatment period, with minimum treatment duration of four weeks. The two main secondary efficacy parameters were overall responder rate based on the weekly question on adequate relief of abdominal pain/discomfort and abnormal bowel habits during the 26-week treatment period. The onset of action of cilansetron was also examined using daily diary data (stool frequency, and ratings of urgency and severity) during the initial 8 weeks of trial participation. An additional key secondary efficacy parameter was the number of months (one month equals four weeks) up to six months (24-weeks) that a subject was a responder for IBS symptoms, where a responder was defined as a subject who answered the weekly question with “yes” at least twice for that month. The responder rate for the weekly diary questions on adequate relief at each month and all months, the adequate relief rate, the number of subjects with adequate relief by week, daily diary questions, IBS-QOL scores, and the interruption of activities were also assessed. Safety was evaluated by physical examination, ECG, vital signs, laboratory evaluations, concomitant medications, and AEs.
(§1) Studies S24 1.3.OO6, S24 1.3.0 1 1, and S24 1.3.009 used the following efficacy measurements: • The subjects answered the following three questions with “yes” or “no” using a phone diary at the end of each week: • a) During the last week, did you experience adequate relief of your IBS symptoms, such as abdominal pain, abdominal discomfort, abnormal bowel habits? • b) During the last week, did you experience adequate relief of your abdominal pain and/or discomfort? • c) During the last week, did you experience adequate relief of your abnormal bowel habits? • The subjects rated the following symptoms using the phone diary at the end of each day: • abdominal pain/discomfort (five-point scale); • stool consistency (seven-point Bristol Stool Scale); • stool frequency (number of bowel movements each day); • urgency (five-point scale); • straining (yes or no); • feeling of incomplete defecation (yes or no); • bloating or feeling of abdominal distension (five-point scale). • In Studies S241 A006 and S241.3.009, subjects completed the IBS-QOL Survey at Baseline (Day 1) and at the end of treatment. In Study S24 1.3.0 1 1, subjects completed the IBS-QOL Survey at Baseline (Day 1), at the end of the three-month treatment period, and at the end of rerandomized treatment.
Other secondary efficacy parameters for all three studies included: • Responder rate for the weekly diary questions on adequate relief at each month, where a responder for a month (monthly responder) was defined as a subject who answered the weekly question with “yes” at least twice for that month. The responder rate was the percentage of responders within a treatment group. The all-month responder rate for the weekly diary questions on adequate relief was also evaluated, where an all-month responder was defined as a subject who answered the weekly question with “yes” at least twice for each month. […]

[2] = tested on: diarrhea-predominant IBS subjects; assay: Study S241.3.011: IBS-QOL; settings: for Mean change in IBS-QoL subscale Body Image / Mean change in IBS-QoL subscale Dysphoria / Mean change in IBS-QoL subscale Food Avoidance / Mean change in IBS-QoL subscale Health Worry / Mean change in IBS-QoL subscale Interference with Activity / Mean change in IBS-QoL subscale Relationship / Mean change in IBS-QoL subscale Sexual / Mean change in IBS-QoL subscale Social Reaction / Mean change in IBS-QoL, Overall: RR (four-week rerandomization) period
Excerpt: as §1
(§2) Other secondary efficacy parameters for all three studies included: • Responder rate for the weekly diary questions on adequate relief at each month, where a responder for a month (monthly responder) was defined as a subject who answered the weekly question with “yes” at least twice for that month. The responder rate was the percentage of responders within a treatment group. The all-month responder rate for the weekly diary questions on adequate relief was also evaluated, where an all-month responder was defined as a subject who answered the weekly question with “yes” at least twice for each month. The all-month responder rate was the percentage of all-month responders within a treatment group; • Adequate relief rate for the weekly diary questions was calculated for each subject as the number of weekly assessments with adequate relief (“yes”) divided by the total number of weekly assessments; • Percentage of subjects with adequate relief for the weekly diary questions at each week; • Daily diary questions regarding abdominal pain/discomfort (five-point scale), stool consistency (seven-point scale), stool frequency (number of bowel movements each day), straining (yes or no), urgency (five-point scale), feeling of incomplete evacuation (yes or no), and bloating or feeling of abdominal distention (five-point scale); • QOL data assessed by the IBS-QOL questionnaire; and • Question to determine the interruption of activities.

[3] = tested on: diarrhea-predominant IBS subjects; assay: Study S241.3.006: interruption of activities assessment; settings: for Percentage of Subjects Who Worsened from Baseline: Interruption of Activities: S241.3.006, 2 mg TID, observed value
Excerpt: as §1, §2

## Cc1nccn1C[C@H]1CCc2c(c3cccc4c3n2CCC4)C1=O [Cilansetron, (R)-(−)-4,5,6,8,9,10-hexahydro-10-[(2-methyl-1H-imidazol-1-yl)methyl]-11H-pyrido-[3,2,1-jk]-carbazol-11-one]
[1]; 2 mg TID
  Mean number of stools per day at end of treatment: 1.96 stools per day
[1]; Day 2 of treatment
  Stools per day: 2.97 stools per days
[1]; Month 1 to Month 3
  Median rate of pain-free days: 0.13
  Median rate of urgency-free days: 0.05
[1]; Month 4 to Month 6
  Median rate of pain-free days: 0.31
  Median rate of urgency-free days: 0.10
[1]; Weeks 1-2, 2 mg TID
  Percentage of Subjects Who Worsened from Baseline: Daily Abdominal Pain: 13%
  Percentage of Subjects Who Worsened from Baseline: Daily Urgency: 7%
[1]; Weeks 3-4, 2 mg TID
  Percentage of Subjects Who Worsened from Baseline: Daily Abdominal Pain: 8%
  Percentage of Subjects Who Worsened from Baseline: Daily Urgency: 5%
[1]; Weeks 5-6, 2 mg TID
  Percentage of Subjects Who Worsened from Baseline: Daily Abdominal Pain: 8%
  Percentage of Subjects Who Worsened from Baseline: Daily Urgency: 5%
[1]; Weeks 7-8, 2 mg TID
  Percentage of Subjects Who Worsened from Baseline: Daily Abdominal Pain: 7%
  Percentage of Subjects Who Worsened from Baseline: Daily Urgency: 4%
[1]; Weeks 9-10, 2 mg TID
  Percentage of Subjects Who Worsened from Baseline: Daily Abdominal Pain: 4%
  Percentage of Subjects Who Worsened from Baseline: Daily Urgency: 6%
[1]; Weeks 11-12, 2 mg TID
  Percentage of Subjects Who Worsened from Baseline: Daily Abdominal Pain: 7%
  Percentage of Subjects Who Worsened from Baseline: Daily Urgency: 4%
[1]; Weeks 13-26, 2 mg TID
  Percentage of Subjects Who Worsened from Baseline: Daily Abdominal Pain: 6-8%
  Percentage of Subjects Who Worsened from Baseline: Daily Urgency: 5-8%
[1]; Weeks 1-2
  Subjects worsened from Baseline, daily abdominal pain: 13%
  Subjects worsened from Baseline, daily urgency: 7%
[1]; in vivo
  Bloating or abdominal distention score, change from Baseline at end of treatment: −0.75
  Daily abdominal pain/discomfort score, change from Baseline at end of treatment: −0.92
  Daily stool consistency score, change from Baseline at end of treatment: −1.40
  Daily urgency score, change from Baseline at end of treatment: −0.80
  Feeling of incomplete evacuation, change from Baseline at end of treatment: −0.25
  Mean stool consistency score at end of treatment: 4.27
  Mean straining, change from Baseline at end of treatment: 0.06
  Pain-free days at end of treatment: 0.29
  Stools per day, change from Baseline at end of treatment: −1.60
  Urgency-free days at end of treatment: 0.08
[1]; six-month period
  Median rate of pain-free days: 0.19
  Median rate of urgency-free days: 0.07
[2]; C/C
  Overall IBS-QOL score, mean change from rerandomization Baseline: 0.9
[2]; C/P
  Overall IBS-QOL score, mean change from rerandomization Baseline: −4.9
[2]; P/C
  Overall IBS-QOL score, mean change from rerandomization Baseline: 5.1
[2]; C/C group
  Mean change in IBS-QoL subscale Body Image: −0.8
  Mean change in IBS-QoL subscale Dysphoria: +2.2
  Mean change in IBS-QoL subscale Food Avoidance: +0.6
  Mean change in IBS-QoL subscale Health Worry: +0.2
  Mean change in IBS-QoL subscale Interference with Activity: +1.4
  Mean change in IBS-QoL subscale Relationship: +1.7
  Mean change in IBS-QoL subscale Sexual: −1.4
  Mean change in IBS-QoL subscale Social Reaction: +0.3
  Mean change in IBS-QoL, Overall: +0.9
[2]; C/P group
  Mean change in IBS-QoL subscale Body Image: −3.0
  Mean change in IBS-QoL subscale Dysphoria: −6.0
  Mean change in IBS-QoL subscale Food Avoidance: −4.7
  Mean change in IBS-QoL subscale Health Worry: −1.0
  Mean change in IBS-QoL subscale Interference with Activity: −6.4
  Mean change in IBS-QoL subscale Relationship: −3.0
  Mean change in IBS-QoL subscale Sexual: −3.5
  Mean change in IBS-QoL subscale Social Reaction: −5.9
  Mean change in IBS-QoL, Overall: −4.9
[2]; P/C group
  Mean change in IBS-QoL subscale Body Image: +5.0
  Mean change in IBS-QoL subscale Dysphoria: +1.4
  Mean change in IBS-QoL subscale Food Avoidance: +7.9
  Mean change in IBS-QoL subscale Health Worry: +2.1
  Mean change in IBS-QoL subscale Interference with Activity: +7.9
  Mean change in IBS-QoL subscale Relationship: +1.4
  Mean change in IBS-QoL subscale Sexual: +1.4
  Mean change in IBS-QoL subscale Social Reaction: +3.8
  Mean change in IBS-QoL, Overall: +5.1
[2]; vs placebo
  IBS-QOL body image, treatment difference: 6.60
  IBS-QOL dysphoria, treatment difference: 8.16
  IBS-QOL food avoidance, treatment difference: 9.64
  IBS-QOL health worry, treatment difference: 4.05
  IBS-QOL interference with activity, treatment difference: 10.57
  IBS-QOL overall score, treatment difference in mean change from Baseline at Endpoint: 7.53
  IBS-QOL relationships, treatment difference: 4.72
  IBS-QOL sexual, treatment difference: 5.93
  IBS-QOL social reaction, treatment difference: 5.53
[3]; Endpoint
  Subjects “not at all or rarely” bothered by IBS symptoms: 42%
[3]; Month 1
  Subjects worsened from Baseline, interruption of activities: 8%
  Percentage of Subjects Who Worsened from Baseline: Interruption of Activities: 8%
[3]; Month 2
  Percentage of Subjects Who Worsened from Baseline: Interruption of Activities: 5%
[3]; Month 3
  Percentage of Subjects Who Worsened from Baseline: Interruption of Activities: 4%
